Reference: US20260015350A1, “AZAQUINAZOLINE PAN-KRAS INHIBITORS” (Mirati Therapeutics, Inc., priority 2022, published 2026)

Assays:
KRas^G12V = target: T1, KRas^G12V (Homo sapiens, UniProt P01116, G12V); assay: KRas binding assay (TR-FRET tracer displacement), KRas G12V
T1 construct: Biotinylated KRas (corresponding to amino acids 1-169, produced at Accelegan Inc.); biotin (biotinylated); purchased Accelegan Inc

KRas^G12R = target: T2, KRas^G12R (Homo sapiens, UniProt P01116, G12R); assay: KRas binding assay (TR-FRET tracer displacement), KRas G12R
T2 construct: Biotinylated KRas (corresponding to amino acids 1-169, produced at Accelegan Inc.); biotin (biotinylated); purchased Accelegan Inc

KRas^G12D = target: T3, KRas^G12D (Homo sapiens, UniProt P01116, G12D); assay: KRas binding assay (TR-FRET tracer displacement), KRas G12D
T3 construct: Biotinylated KRas (corresponding to amino acids 1-169, produced at Accelegan Inc.); biotin (biotinylated); purchased Accelegan Inc

[1] = test system: KRas-mediated phosphorylation of ERK in H727 cells; assay: Inhibition of KRas-mediated phosphorylation of ERK (Cisbio HTRF pERK), H727 cells; assay type: cell-based; settings: Homo sapiens, NCI-H727, H727 cells; HTRF pERK
Procedure, shortened: (§1)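 A cell-based HTRF pERK assay: ten-point, threefold titrations beginning at 10 uM were applied for 3 hrs, with 0.2 uM Trametinib wells as the minimum control. Cells were lysed cold, and lysate was incubated with the antibody pair for 2 hrs before reading.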

[2] = test system: KRas-mediated phosphorylation of ERK in AsPC-1 cells; assay: Inhibition of KRas-mediated phosphorylation of ERK (Cisbio HTRF pERK), AsPC-1 cells; assay type: cell-based; settings: Homo sapiens, ASPC1, AsPC-1 cells; HTRF pERK
Procedure, shortened: as §1

T2 sequence (P01116 1-169 isoform P01116-2 G12R): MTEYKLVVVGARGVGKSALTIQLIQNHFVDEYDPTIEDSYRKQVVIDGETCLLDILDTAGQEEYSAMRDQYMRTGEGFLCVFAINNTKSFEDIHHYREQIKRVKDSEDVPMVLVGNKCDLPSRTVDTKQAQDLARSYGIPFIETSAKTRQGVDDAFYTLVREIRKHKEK
T3 sequence (P01116 1-169 isoform P01116-2 G12D): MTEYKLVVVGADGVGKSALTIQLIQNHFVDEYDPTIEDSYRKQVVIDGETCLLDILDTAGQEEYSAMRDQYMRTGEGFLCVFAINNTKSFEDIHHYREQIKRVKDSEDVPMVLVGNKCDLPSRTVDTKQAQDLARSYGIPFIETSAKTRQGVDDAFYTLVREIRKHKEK
T1 sequence (P01116 1-169 isoform P01116-2 G12V): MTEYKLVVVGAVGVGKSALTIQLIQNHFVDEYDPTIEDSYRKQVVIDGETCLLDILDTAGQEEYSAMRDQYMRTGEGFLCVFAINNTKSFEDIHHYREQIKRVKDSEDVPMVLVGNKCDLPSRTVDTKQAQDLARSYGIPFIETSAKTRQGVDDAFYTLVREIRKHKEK

| IC50 (KRas^G12V) [nM] | IC50 (KRas^G12R) [nM] | IC50 (KRas^G12D) [nM] | IC50 [1] [nM] | IC50 [2] [nM] | Structure (SMILES) |
| --- | --- | --- | --- | --- | --- |
| 590 | 453 | 1630 | > 10000 | > 10000 | CCc1c(F)ccc2cc(O)cc(-c3ncc4c(N5CCC6(CC5)CC[S+]6[O-])nc(OC[C@@]56CCCN5C[C@H](F)C6)nc4c3F)c12 (stereo partly drawn) [Example 603, 7-(7-(8-ethyl-7-fluoro-3-hydroxynaphthalen-1-yl)-8-fluoro-2-(((2R,7aS)-2-fluorotetrahydro-1H-pyrrolizin-7a(5H)-yl)methoxy)pyrido[4,3-d]pyrimidin-4-yl)-1-thia-7-azaspiro[3.5]nonane 1-oxide] |
| 121 | 127 | 1530 | 1950 | 4470 | CCc1c(F)ccc2cc(O)cc(-c3ncc4c(N5CCC(Cc6ccn(C)n6)C5)nc(OC[C@@]56CCCN5C[C@H](F)C6)nc4c3F)c12 (stereo partly drawn) [Example 611, 5-ethyl-6-fluoro-4-(8-fluoro-2-(((2R,7aS)-2-fluorotetrahydro-1H-pyrrolizin-7a(5H)-yl)methoxy)-4-(3-((1-methyl-1H-pyrazol-3-yl)methyl)pyrrolidin-1-yl)pyrido[4,3-d]pyrimidin-7-yl)naphthalen-2-ol] |
| 398 | 701 | 805 | > 10000 | > 10000 | CCc1c(F)ccc2cc(O)cc(-c3ncc4c(N5CC[C@@H]6C(=O)NC(=O)[C@@H]6CC5)nc(OC[C@@]56CCCN5C[C@H](F)C6)nc4c3F)c12 [Example 614, (3aR,8aS)-6-(7-(8-ethyl-7-fluoro-3-hydroxynaphthalen-1-yl)-8-fluoro-2-(((2R,7aS)-2-fluorohexahydro-1H-pyrrolizin-7a-yl)methoxy)pyrido[4,3-d]pyrimidin-4-yl)hexahydropyrrolo[3,4-d]azepine-1,3(2H,3aH)-dione] |
| 248 | 376 | 495 | 6800 | 9680 | CCc1c(F)ccc2cc(O)cc(-c3ncc4c(N5CCCC(C6CCC(=O)N6)C5)nc(OC[C@@]56CCCN5C[C@H](F)C6)nc4c3F)c12 (stereo partly drawn) [Example 620, 5-(1-(7-(8-ethyl-7-fluoro-3-hydroxynaphthalen-1-yl)-8-fluoro-2-(((2R,7aS)-2-fluorohexahydro-1H-pyrrolizin-7a-yl)methoxy)pyrido[4,3-d]pyrimidin-4-yl)piperidin-3-yl)pyrrolidin-2-one] |
| 43000 | 23600 | 98800 | > 10000 | > 10000 | CCc1c(F)ccc2cc(O)cc(-c3ncc4c(N5CCC(C)(C)SC(C)(C)C5)nc(OC[C@@]56CCCN5C[C@H](F)C6)nc4c3F)c12 [Example 626, 5-ethyl-6-fluoro-4-(8-fluoro-2-(((2R,7aS)-2-fluorohexahydro-1H-pyrrolizin-7a-yl)methoxy)-4-(2,2,7,7-tetramethyl-1,4-thiazepan-4-yl)pyrido[4,3-d]pyrimidin-7-yl)naphthalen-2-ol] |
| 12 | 27 | 35 | 4560 | > 10000 | CCc1c(F)ccc2cc(O)cc(-c3ncc4c(N5CCCCC(P(C)(C)=O)C5)nc(OC[C@@]56CCCN5C[C@H](F)C6)nc4c3F)c12 (stereo partly drawn) [Example 627, (1-(7-(8-ethyl-7-fluoro-3-hydroxynaphthalen-1-yl)-8-fluoro-2-(((2R,7aS)-2-fluorohexahydro-1H-pyrrolizin-7a-yl)methoxy)pyrido[4,3-d]pyrimidin-4-yl)azepan-3-yl)dimethylphosphine oxide] |
| 107 | 180 | 78 | 2810 | 3260 | CCc1c(F)ccc2cc(O)cc(-c3ncc4c(N5CCCC6(CCS6(=O)=O)C5)nc(OC[C@@]56CCCN5C[C@H](F)C6)nc4c3F)c12 (stereo partly drawn) [Example 628, 6-(7-(8-ethyl-7-fluoro-3-hydroxynaphthalen-1-yl)-8-fluoro-2-(((2R,7aS)-2-fluorohexahydro-1H-pyrrolizin-7a-yl)methoxy)pyrido[4,3-d]pyrimidin-4-yl)-1-thia-6-azaspiro[3.5]nonane 1,1-dioxide] |
| 15 | 37 | 65 | > 10000 | > 10000 | CCc1c(F)ccc2cc(O)cc(-c3ncc4c(N5CCOCC(P(C)(C)=O)C5)nc(OC[C@@]56CCCN5C[C@H](F)C6)nc4c3F)c12 (stereo partly drawn) [Example 629, (4-(7-(8-ethyl-7-fluoro-3-hydroxynaphthalen-1-yl)-8-fluoro-2-(((2R,7aS)-2-fluorohexahydro-1H-pyrrolizin-7a-yl)methoxy)pyrido[4,3-d]pyrimidin-4-yl)-1,4-oxazepan-6-yl)dimethylphosphine oxide] |
| 12 | 33 | 9 | 1600 | 3130 | CCc1c(F)ccc2cc(O)cc(-c3ncc4c(N5CCCC(S(N)(=O)=O)CC5)nc(OC[C@@]56CCCN5C[C@H](F)C6)nc4c3F)c12 (stereo partly drawn) [Example 631, 1-(7-(8-ethyl-7-fluoro-3-hydroxynaphthalen-1-yl)-8-fluoro-2-(((2R,7aS)-2-fluorotetrahydro-1H-pyrrolizin-7a(5H)-yl)methoxy)pyrido[4,3-d]pyrimidin-4-yl)azepane-4-sulfonamide] |

More lines, now with the values behind:

| Structure (SMILES) | IC50 (KRas^G12V) [nM] | IC50 (KRas^G12R) [nM] | IC50 (KRas^G12D) [nM] | IC50 [1] [nM] | IC50 [2] [nM] |
| --- | --- | --- | --- | --- | --- |
| CCc1c(F)ccc2cc(O)cc(-c3ncc4c(N5C[C@@H]6[C@@H](CC#N)NC(=O)[C@@H]6C5)nc(OC[C@@]56CCCN5C[C@H](F)C6)nc4c3F)c12 [Example 606, 2-((1R,3aS,6aR)-5-(7-(8-ethyl-7-fluoro-3-hydroxynaphthalen-1-yl)-8-fluoro-2-(((2R,7aS)-2-fluorohexahydro-1H-pyrrolizin-7a-yl)methoxy)pyrido[4,3-d]pyrimidin-4-yl)-3-oxooctahydropyrrolo[3,4-c]pyrrol-1-yl) acetonitrile] | 43 | 71 | 26 | > 10000 | > 10000 |
| CCc1c(F)ccc2cc(O)cc(-c3ncc4c(N5CCC6(CC5)OCCC6C#N)nc(OC[C@@]56CCCN5C[C@H](F)C6)nc4c3F)c12 (stereo partly drawn) [Example 612, 8-(7-(8-ethyl-7-fluoro-3-hydroxynaphthalen-1-yl)-8-fluoro-2-(((2R,7aS)-2-fluorohexahydro-1H-pyrrolizin-7a-yl)methoxy)pyrido[4,3-d]pyrimidin-4-yl)-1-oxa-8-azaspiro[4.5]decane-4-carbonitrile] | 474 | 911 | 4250 | > 10000 | > 10000 |
| CCc1c(F)ccc2cc(O)cc(-c3ncc4c(N5CC6(CO)CC(C7CC7)(C5)C6)nc(OC[C@@]56CCCN5C[C@H](F)C6)nc4c3F)c12 [Example 613, 4-(4-(1-cyclopropyl-5-(hydroxymethyl)-3-azabicyclo[3.1.1]heptan-3-yl)-8-fluoro-2-(((2R,7aS)-2-fluorohexahydro-1H-pyrrolizin-7a-yl)methoxy)pyrido[4,3-d]pyrimidin-7-yl)-5-ethyl-6-fluoronaphthalen-2-ol] | 21800 | 27500 | 54800 | > 10000 | > 10000 |
| CCc1c(F)ccc2cc(O)cc(-c3ncc4c(N5CC6CN(C7COC7)CC6C5)nc(OC[C@@]56CCCN5C[C@H](F)C6)nc4c3F)c12 (stereo partly drawn) [Example 621, 5-ethyl-6-fluoro-4-(8-fluoro-2-(((2R,7aS)-2-fluorohexahydro-1H-pyrrolizin-7a-yl)methoxy)-4-(5-(oxetan-3-yl)hexahydropyrrolo[3,4-c]pyrrol-2(1H)-yl)pyrido[4,3-d]pyrimidin-7-yl)naphthalen-2-ol] | 1290 | 3490 | 891 | > 10000 | > 10000 |
| CCc1c(F)ccc2cc(O)cc(-c3ncc4c(N5C[C@@H]6[C@@H](C(N)=O)NC(=O)[C@@H]6C5)nc(OC[C@@]56CCCN5C[C@H](F)C6)nc4c3F)c12 [Example 622, (3aS,6aR)-5-(7-(8-ethyl-7-fluoro-3-hydroxynaphthalen-1-yl)-8-fluoro-2-(((2R,7aS)-2-fluorotetrahydro-1H-pyrrolizin-7a(5H)-yl)methoxy)pyrido[4,3-d]pyrimidin-4-yl)-3-oxooctahydropyrrolo[3,4-c]pyrrole-1-carboxamide] | 68 | 139 | 377 | > 10000 | > 10000 |
| CCc1c(F)ccc2cc(O)cc(-c3ncc4c(N[C@@H]5C[C@@H](C)S(=O)(=O)[C@@H](C)C5)nc(OC[C@@]56CCCN5C[C@H](F)C6)nc4c3F)c12 [Example 630, (2R,4s,6S)-4-((7-(8-ethyl-7-fluoro-3-hydroxynaphthalen-1-yl)-8-fluoro-2-(((2R,7aS)-2-fluorohexahydro-1H-pyrrolizin-7a-yl)methoxy)pyrido[4,3-d]pyrimidin-4-yl)amino)-2,6-dimethyltetrahydro-2H-thiopyran 1,1-dioxide] | 93 | 34 | 796 | 4420 | > 10000 |
| CCc1c(F)ccc2cc(O)cc(-c3ncc4c(NS(=O)(=O)C5CCCNCC5)nc(OC[C@@]56CCCN5C[C@H](F)C6)nc4c3F)c12 (stereo partly drawn) [Example 632, N-(7-(8-ethyl-7-fluoro-3-hydroxynaphthalen-1-yl)-8-fluoro-2-(((2R,7aS)-2-fluorotetrahydro-1H-pyrrolizin-7a(5H)-yl)methoxy)pyrido[4,3-d]pyrimidin-4-yl)azepane-4-sulfonamide] | 1200 | 1870 | 2180 | > 10000 | > 10000 |
